# Values quoted from earlier work, collected in patent publication US20210054334A1, “DIRECTED DIFFERENTIATION OF ASTROCYTES FROM HUMAN PLURIPOTENT STEM CELLS FOR USE IN DRUG SCREENING AND THE TREATMENT OF AMYOTROPHIC LATERAL SCLEROSIS (ALS)” (Kadimastem Ltd., priority 2013, published 2021).
# Conditions: ALS
structure (smiles),measurement,value
"Nc1nc2ccc(OC(F)(F)F)cc2s1 [Rilutek, Riluzole]",extension of lifespan,only extends lifespan by a maximum of three months
